From patent publication US10786475B2, “Method for preventing, treating, or improving fatty liver by administering effective amounts of azelaic acid to a subject” (Korea University Research and Business Foundation, priority 2018, dated 2020) come the findings set out here.

Type in all cases: cell-based, mouse
Experiment [1] has as its system Olfr544. The experiment is described as follows: p-CREB/CREB western blotting in Hepa1c1c-7 cells, normal and Olfr544 knockdown. From the text: To more clearly confirm whether an AzA acts as an Olfr544 ligand, an Olfr544 knockdown cell line was constructed using a vector including shRNA, and protein expression levels of normal cells and knockdown cells were compared by performing an experiment as follows. To construct an Olfr544 knockdown cell line, particularly, an oligonucleotide (top strand [SEQ ID NO: 1]: 5′-[…]-ACAGTGAG-3′) encoding an Olfr544-targeted shRNA hairpin sequence or an oligonucleotide (top strand [SEQ ID NO: 2]: 5′-[…]-3′) encoding non-targeting scrambled shRNA hairpins were inserted into an shRNA cloning site of a pENTR/U6 vector using a BLOCK-iT U6 RNAi entry vector kit (Invitrogen). Subsequently, Hepa1c1c-7 or 3T3-L1 cells were seeded on a 6-well plate and transfected with 2.5 μg of Olfr544 shRNA or scrambled shRNA using 10 μL Lipofectamine 2000 (Invitrogen) for 48 hours, thereby constructing an Olfr544 knockdown cell line. […]
To confirm whether an Olfr544 protein was expressed, protein fractions (cell membrane protein, cytosol protein) and total proteins (whole protein extract), which were extracted by the method of Example 2-3, were quantified by a Bradford method. […] The expression level of each gene was standardized using β-actin or GAPDH expression, and the comparison of the contents of protein bands of western blots was quantified and digitized using software (Gel-Pro Analyzer 4.0). […]
On the technique in general: Immunoblotting shows a protein as a band on a membrane.

Experiment [2] has as its system Hepa1c1c-7 cells stimulated by LPS. The experiment is described as follows: IL-6 and TNF-α cytokine concentration (ELISA) in LPS-treated Hepa1c1c-7 cells. The following applies: 50 μM AzA pretreatment 1 hour, 100 ng/mL LPS 6 hours. How it is done: Hepa1c1c-7 cells were cultured in a 12-well plate for 24 hours. Subsequently, the cells were pretreated with 50 μM of AzA for 1 hour, and treated with 100 ng/mL LPS for 6 hours with the AzA present. The Hepa1c1c-7 cells were lysed in a cell lysis buffer (50 mM Tris, 1% Triton-X 100, 1 mM EDTA, proteinase inhibitor), centrifuged at 13,000 rpm and 4° C. for 20 minutes, thereby obtaining a supernatant, and then the supernatant was analyzed using a Mouse IL6 ELISA kit and a Mouse TNFα ELISA kit (Thermo Scientific, IL, USA). Tumor necrosis factor-alpha (TNF-α) and interleukin-6 (IL-6) were quantified using ELISA known to those of ordinary skill in the art.

Experiment [3] deals with 3T3-L1 cells stimulated by LPS. The experiment is described as follows: IL-6 and TNF-α gene expression (qPCR) in LPS-treated 3T3-L1 adipose cells. The following applies: LPS-treated 3T3-L1 cells differentiated into adipose cells, compared with control group. On the procedure: 3T3-L1 cells, mouse pre-adipose cells were purchased from the Korean Cell Line Bank (Seoul, Korea). The 3T3-L1 cells were cultured in Dulbecco's modified Eagle's medium (DMEM) supplemented with 10% heat-inactivated bovine calf serum (Gibco, Grand Island, N.Y., USA) and 1% PEST under 5% CO2 at 37° C. The 3T3-L1 pre-adipose cells were seeded on a 6-well plate at 1×10^6 cells/well to differentiate into adipose cells, and cultured to a density of 100%. After 2 days, the cultured 3T3-L1 pre-adipose cells were incubated in DMEM containing 10% fetal bovine serum (FBS) and an MDI solution (0.5 mM IBMX, 0.5 μM dexamethasone and 10 μg/mL insulin) for 3 days. Subsequently, the treated cells were cultured in DMEM containing 10% FBS and 10 μg/mL insulin, and the formation of lipid droplets in cells and the degree thereof were confirmed, and based on this, the differentiation into adipose cells was confirmed. To confirm the expression of IL-6 and TNF-α genes, qRT-PCR was performed by the same methods described in Examples 7-4 and 7-5.
For orientation: In qPCR the cycle at which signal appears reflects the starting amount.

Take `O=C(O)CCCCCCCC(=O)O` [AzA, nonanedioic acid]: in experiment [1] (Hepa1c1c-7 cells with Olfr544 knockdown by shRNA transfection), the “increase in p-CREB/CREB ratio” value was “not observed”. Besides, the p-CREB/CREB ratio result in experiment [1] (Hepa1c1c-7 cells, AzA-treated group) is reported as “significantly increased”. Besides, the “expression level of the IL-6 protein” value in experiment [2] is “tendency of decrease”. Further, the IL-6 gene expression result in experiment [3] is given as “significantly decreased”.
